# Data: US20240208984A1, “BIVALENT LIGANDS TO UNDERSTAND DIMERIZATION OF THE MU OPIOID RECEPTOR AND THE CHEMOKINE RECEPTOR CCR5 IN NEUROLOGICAL DISORDERS” (priority 2021, published 2024)
# Where two headings read alike, the source gives them in different places. Marks after values point to notes of the source that are not given here.
# B1: MIP-1β: macrophage inflammatory protein 1 beta, used as a control (protein, UniProt P13236 24-92, looked up)
# C-C motif chemokine 4: APMGSDPPTACCFSYTARKLPRNFVVDYYETSSLCSQPAVVFQTKRSKQVCADPSESWVQEYVYDLELN
# What was measured:
# HIV-1BaL = experiment: Anti-HIV-1BaL activity (reverse transcriptase activity) in GHOST CCR5 cells; settings: for EC50: read-out: Inhibition of HIV-1BaL EC50, RT activity, triplicate
# Description: This assay was run in GHOST-CCR5 cells using the CCR5-tropic viral strain HIV-1BaL.
# (§1) 100 μL of GHOST CCR5 cells at a density of 1×10^4 cells/well in 10% complete DMEM (10% FBS with 1% L-glutamine and 1% Penicillin/Streptomycin) media were plated in a 96-well flat bottom plate and incubated for 24 h at 37° C./5% CO2. Following the incubation, 100 μL of each compound at 6 concentrations were added in triplicate to both efficacy and toxicity plates followed by 100 μL of HIV-1BaL at a pre-determined titer to the plates being evaluated for efficacy and 50 μL of complete DMEM to the plates being evaluated for cytotoxicity. The cultures were incubated for 6 days at 37° C./5% CO2. Following the incubation, 50 μL of cell culture supernatant was removed from the wells of the efficacy plates for subsequent evaluation of virus content by reverse transcriptase activity assay. The toxicity plates being evaluated for cytotoxicity were stained with XTT.
# RT activity (EC50 values) was measured using standard radioactivity incorporation polymerization assay. 1 μL of titrated thymidine triphosphate (TTP) at 1 Ci/mL was used per enzyme reaction. Poly rA and oligo dT were prepared at concentrations of 0.5 mg/mL and 1.7 Units/mL, respectively, from a stock solution which was kept at −20° C. The RT reaction buffer was prepared fresh and consists of 125 μL of 1M EGTA, 125 μL of dH2O, 125 μL of 20% Triton X-100, 50 μL of 1M Tris (pH 7.4), 50 μL of 1M DTT, and 40 μL of 1 M MgCl2. For each reaction, 1 μL of TTP, 4 μL of dH2O, 2.5 μL of rAdT and 2.5 μL of reaction buffer were mixed. 10 μL of this reaction mixture was placed in a round bottom microtiter plate with 15 μL of virus containing supernatant. The plate was incubated at 37° C. in a humidified incubator for 60-90 min. […] The dried filtermat was placed in a plastic sleeve and 4 mL of Opti-Fluor O (Perkin Elmer, catalog #1205-440) scintillation fluid was added to each sleeve. […] TC50 values for the tested compounds were derived by measuring the reduction of the tetrazolium dye XTT (2,3-bis(2-methoxy-4-nitro-5-sulfophenyl)-5-[(phenylamino)carbonyl]-2H-tetrazolium hydroxide). XTT in metabolically active cells is metabolized by the mitochondrial enzyme NADPH oxidase to a soluble formazan product. XTT solution was prepared as a stock of 1 mg/mL in RPMI-1640 without additives. Phenazine methosulfate (PMS) solution was prepared at 0.15 mg/mL in DPBS and stored in the dark at −20° C. XTT/PMS stock was prepared immediately before use by adding 40 μL of PMS per mL of XTT solution. […] The plates were sealed and inverted several times to mix the soluble formazan product and the plate was read at 450 nm (650 nm reference wavelength) with a Molecular Devices SPECTRAMAX® Plus 384 96 well format spectrophotometer.
# GHOST CCR5 cells = settings: GHOST CCR5 cells; XTT; triplicate
# Description: These compounds were concurrently assessed for cytotoxicity in GHOST-CCR5-expressing cells using the XTT assay. […] The therapeutic index (TI, TC50/EC50) values were calculated if applicable.
# as §1
# TC50 values for the tested compounds were derived by measuring the reduction of the tetrazolium dye XTT (2,3-bis(2-methoxy-4-nitro-5-sulfophenyl)-5-[(phenylamino)carbonyl]-2H-tetrazolium hydroxide). XTT in metabolically active cells is metabolized by the mitochondrial enzyme NADPH oxidase to a soluble formazan product. XTT solution was prepared as a stock of 1 mg/mL in RPMI-1640 without additives. Phenazine methosulfate (PMS) solution was prepared at 0.15 mg/mL in DPBS and stored in the dark at −20° C. XTT/PMS stock was prepared immediately before use by adding 40 μL of PMS per mL of XTT solution. 50 μL of XTT/PMS was added to each well of the plate and the plate was incubated for 4 h at 37° C. The plates were sealed and inverted several times to mix the soluble formazan product and the plate was read at 450 nm (650 nm reference wavelength) with a Molecular Devices SPECTRAMAX® Plus 384 96 well format spectrophotometer.
# [1] = tested on: HIV-1BaL Env-pseudotyped Luc-expressing virus; experiment: HIV-1 infection assay in PHA-stimulated PBMC cells; assay type: cell-based; settings: PHA-stimulated PBMCs; 10 nM
# Description: Peripheral blood mononuclear cells (PBMCs) include large numbers of CCR5-expressing leukocytes and are susceptible to infection by R5-tropic HIV-1 strains.
# In a 24-well plate, PHA-stimulated PBMC cells from healthy donors were infected by incubation with the HIV-1BaL.01 env-pseudotyped Luc virus. A concentration of HIV-1 p24 50 pg/106 cells was used, and uninfected cells served as a negative control. […] After approximately 18-20 h, the supernatant was removed and stored at −80° C., cells were rinsed twice with PBS and lysed. The lysate was subsequently tested for the relative Tat protein expression by using a luciferase assay system (Promega). Luciferase activity was measured using a PHERASTAR® FS plate reader (BMG Labtech).
# [2] = molecular target: T1, Rhesus macaque chemokine CCR5 receptors (Macaca mulatta (Rhesus macaque), UniProt P61813); settings: data reported before; similar assay with minor differences; read-out: CCR5 Radioligand Binding Affinity Ki; cited from earlier work
# mouse MOR [3] = molecular target: T2, mouse MOR (Mus musculus (Mouse), UniProt P42866); settings: [35S]GTPγS binding; data reported before, shown for comparison; cited from earlier work
# mouse mu opioid receptor [4] = molecular target: T3, mouse mu opioid receptor (Mus musculus (Mouse), UniProt P42866); settings: read-out: Inhibition of DAMGO Induced Ca2+ Mobilization IC50; data reported before, shown for comparison; cited from earlier work
# CCR5 [5] = molecular target: T4, CCR5 (Homo sapiens (Human), UniProt P51681); settings: data reported before, shown for comparison; read-out: Inhibition of CCL5-stimulated Intracellular Ca2+ Mobilization IC50; cited from earlier work
# CCR5 [6] = molecular target: T4, CCR5; experiment: Calcium mobilization assay in HOS-CCR5 cells; assay type: cell-based
# Description: We then conducted the calcium mobilization assay to further test both the agonist and antagonist properties of the newly synthesized compounds in the HOS-CCR5 (stably transfected for the expression of CCR5) cells using our reported protocol, as calcium mobilization is associated with the activation of CCR5. Prior to the assay, the HOS-CCR5 cells were transiently transfected with a Gqi5 to boost calcium signaling levels.
# In the antagonism assay, these compounds were assessed for their ability to inhibit CCL5-stimulated Ca^2+ mobilization.
# HOS-CCR5 cells were transfected with Gqi5 pcDNA16 using Lipofectamine 2000 (Invitrogen) according to the manufacturer's recommended procedure and maintained in RPMI 1640 supplemented with 10% fetal bovine serum, 100 μg/mL penicillin, 100 μg/mL streptomycin, and 1 mg/mL G418 at 37° C. and 5% C02. 48 h after transfection, a total of 2,500,000 cells were spun down and brought back up in 8 mL of 50:1 HBSS: HEPES assay buffer. Cells were then plated at 25,000 cells per well into a clear bottom, black 96-well plate (Greiner Bio-one) and 50 μL of Fluo4 loading buffer [40 μL of 2 μM Fluo4-AM (Invitrogen), 100 μL of 2.5 mM probenecid, in 5 mL of assay buffer] was added to bring the volume up to 130 μL. After incubating for 45 min, 50 μL of varying concentrations of tested compounds were added and the plate was incubated for an additional 15 min. Plates were then read on a FlexStation3 microplate reader (Molecular Devices) at 494/516 ex/em for a total of 120 s. After 16 s of reading, 20 μL of 200 nM CCL5 (Biosource) in assay buffer, or assay buffer alone, was added to the wells to bring the total volume up to 200 μL. The changes in calcium mobilization were monitored and peak height values were obtained using SoftMaxPro software (Molecular Devices). Non-linear regression curves and IC50 values were generated using GraphPad Prism 8.0.1 (GraphPad Software, San Diego, CA). All experiments were repeated at least three times.
# mouse mu opioid receptor [7] = molecular target: T3, mouse mu opioid receptor; experiment: Calcium mobilization assay in mMOR-CHO cells; assay type: cell-based
# Description: Calcium mobilization assay results in mMOR-CHO cells. The pharmacological profiles of the three newly prepared MOR bivalent ligands were further characterized for their effects on MOR-dependent intracellular Ca^2+ signaling in an mMOR-CHO cell line that was transfected with chimeric Gqi5 protein as previously described.
# A CHO cell line stably expressing the mouse mu opioid receptor (mMOR-CHO) was used for this assay. The cells were transfected with Gαqi5 for 4 h and then plated (10,000 cells/well) to black 96-well plates with clear bottoms (Greiner Bio-One). After 24 h of incubation, the culture medium was removed, and the cells were washed with assay buffer (50 mL of HBSS, 1 mL of HEPES, 250 μL of probenecid, 50 μL of 1 mM CaCl2, and 50 μL of 1 mM MgCl2). The tested compounds were dissolved in DMSO as a stock solution for the assay (1 M). For agonist assays, cells were then incubated with 50 μL/well loading buffer (6 mL of assay buffer, 24 μL of Fluo4-AM solution (Invitrogen), and 12 μL of probenecid solution) for 60 min. Following incubation, different concentrations of the tested compounds were added by a FlexStation3 microplate reader (Molecular Devices) and read at ex494/em516. Each concentration was run in triplicate. For antagonism studies, the cells were incubated with the same loading buffer as the agonist assay for 60 min. Then, different concentrations of the tested compounds (20 μL/well) were manually added to each well followed by another 15 min of incubation. […] Each concentration was run in triplicate. The corresponding IC50 value of each compound was calculated by non-linear regression using GraphPad Prism 8.0.1 (GraphPad Software, San Diego, CA).
# mouse MOR [8] = molecular target: T2, mouse MOR; experiment: [35S]GTPγS functional assay in mMOR-CHO; assay type: biochemical; settings: [35S]GTPγS binding, mean ± SEM
# Description: After incubation, the bound radioactive ligand was separated from the free radioligand by filtration through a GF/B glass fiber filter paper and rinsed three times with ice-cold wash buffer (50 mM Tris-HCl, pH 7.2) using the Brandel harvester.
# [9] = molecular target: T1, Rhesus macaque chemokine CCR5 receptors; experiment: In vitro CCR5 radioligand binding assay; settings: [125I]MIP-1α radioligand; Chem-1 cells; Cheng-Prusoff; mean ± SEM; read-out: CCR5 Radioligand Binding Affinity Ki
# Description: In vitro CCR5 radioligand binding studies. To verify the binding affinity of the bivalent ligands to the CCR5, the competitive radioligand binding assay was conducted in recombinant rhesus macaque CCR5-expressing Chem-1 cells, and macrophage inflammatory protein 1 beta (MIP-1β) was used as a control.
# The CCR5 competitive radioligand binding assay was conducted following previously reported studies.74, 75 Rhesus macaque chemokine CCR5 receptors expressed in Chem-1 cells are assayed in modified HEPES buffer (50 mM HEPES, 1 mM CaCl2, 5 mM MgCl2, 0.2% BSA, pH 7.4). 3 μg of membrane protein was incubated with 0.10 nM [^125I]MIP-1α in the presence of six concentrations of tested compounds (10 μM, 1 μM, 0.1 μM, 10 nM, 1 nM, and 0.1 nM) for 90 min at 25° C. Non-specific binding is estimated in the presence of 0.1 μM MIP-1β.
# mouse MOR [10] = molecular target: T2, mouse MOR; experiment: In vitro MOR radioligand binding assay; settings: [3H]naloxone radioligand; mMOR-CHO; mean ± SEM; read-out: MOR Radioligand Binding Affinity Ki
# Description: In vitro MOR radioligand binding studies. All bivalent ligands were first tested for their binding affinity to the MOR. The competitive radioligand binding assay was conducted using monoclonal mouse MOR expressed in CHO cell lines (mMOR-CHO).
# In vitro MOR radioligand binding assay The competition binding assay was conducted using monoclonal mouse MOR expressed in Chinese hamster ovary (CHO) cell lines. In this assay, 30 μg of membrane protein was incubated with the radioligand [^3H] naloxone in the presence of different concentrations of tested compounds in TME buffer (50 mM Tris, 3 mM MgCl2, and 0.2 mM EGTA, pH 7.4) for 1.5 h at 30° C. The bound radioligand was separated by filtration using a Brandel harvester. […] The IC50 values were determined and converted to Ki values using the Cheng-Prusoff equation: Ki=IC50/[1+([L*]/KD)], where [L*] is the concentration of the radioligand and KD is the KD of the radioligand was determined.73
# T4 sequence (P51681 whole entry): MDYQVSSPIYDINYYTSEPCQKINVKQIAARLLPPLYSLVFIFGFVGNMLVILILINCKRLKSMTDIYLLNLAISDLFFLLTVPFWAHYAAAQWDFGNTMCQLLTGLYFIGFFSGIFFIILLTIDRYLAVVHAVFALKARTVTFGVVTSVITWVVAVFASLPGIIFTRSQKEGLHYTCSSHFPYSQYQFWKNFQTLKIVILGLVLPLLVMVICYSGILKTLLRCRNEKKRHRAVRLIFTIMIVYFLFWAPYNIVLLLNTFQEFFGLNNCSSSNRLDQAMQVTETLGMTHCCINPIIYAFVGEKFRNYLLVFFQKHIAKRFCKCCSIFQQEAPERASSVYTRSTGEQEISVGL
# T2 sequence (P42866 whole entry, looked up): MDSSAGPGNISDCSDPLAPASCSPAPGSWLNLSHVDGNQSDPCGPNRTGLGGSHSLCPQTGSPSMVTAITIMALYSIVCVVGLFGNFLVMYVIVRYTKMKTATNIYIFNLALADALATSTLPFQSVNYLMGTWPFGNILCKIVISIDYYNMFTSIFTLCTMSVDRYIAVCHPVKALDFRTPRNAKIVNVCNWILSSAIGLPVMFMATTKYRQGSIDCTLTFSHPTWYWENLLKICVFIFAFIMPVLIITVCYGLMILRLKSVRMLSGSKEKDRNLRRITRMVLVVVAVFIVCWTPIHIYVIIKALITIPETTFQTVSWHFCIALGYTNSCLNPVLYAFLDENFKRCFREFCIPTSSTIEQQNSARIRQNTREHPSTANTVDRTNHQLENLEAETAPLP
# T3 sequence (P42866 whole entry, looked up): as above
molecule,measurement,setting,value
Cc1nnc(C(C)C)n1C1C[C@H]2CC[C@@H](C1)N2CC[C@H](NC(=O)C1CCC(F)(F)CC1)c1ccccc1 (stereo in doubt) [Maraviroc],TI (TC50/EC50),HIV-1BaL,>28
same,EC50,HIV-1BaL,18 ± 2 nM
same,Cytotoxicity TC50,GHOST CCR5 cells,>500 nM
"C[C@@H](NC(=O)[C@@H](N)Cc1ccc(O)cc1)C(=O)NCC(=O)N(C)[C@@H](Cc1ccccc1)C(=O)NCCO [DAMGO, [D-Ala2-MePhe4-Gly(ol)5]enkephalin, reference compound]",effect of opioid exposure on HIV expression,[1],remarkable increases in HIV expression
Cc1nnc(C(C)C)n1C1CC2CCC(C1)N2CC[C@H](NC(=O)C1CCC(F)(F)CC1)c1ccc(NC(=O)COCC(=O)NCCCCCCCNC(=O)COCC(=O)N[C@@H]2CC[C@@]3(O)[C@H]4Cc5ccc(O)c6c5[C@@]3(CCN4CC3CC3)[C@H]2O6)cc1 (stereo partly drawn) [VZMC001],Ki,[2],239 ± 56 nM
same,EC50,HIV-1BaL,> 100000 nM
same,% Emax of DAMGO,mouse MOR [3],11.7 ± 1.2^b %
same,IC50,mouse mu opioid receptor [4],40 nM
same,IC50,CCR5 [5],126 nM
same,Cytotoxicity TC50,GHOST CCR5 cells,>100000 nM
CNC(=O)COCC(=O)NCCCNC(=O)COCC(=O)N[C@@H]1CC[C@@]2(O)[C@H]3Cc4ccc(O)c5c4[C@@]2(CCN3CC2CC2)[C@H]1O5 [VZMC002],Cytotoxicity TC50,GHOST CCR5 cells,>100000 nM
CC(C)c1nnc(CCNC(=O)COCC(=O)NCCCCCCCCCNC(=O)COCC(=O)NC2CC[C@@]3(O)[C@H]4Cc5ccc(O)c6c5[C@@]3(CCN4CC3CC3)[C@H]2O6)n1C1CC2CCC(C1)N2CC[C@H](NC(=O)C1CCC(F)(F)CC1)c1ccccc1 (stereo partly drawn) [VZMC017],IC50,CCR5 [6],965 ± 30.5 nM
same,IC50,mouse mu opioid receptor [7],74.4 nM
same,% Emax of DAMGO,mouse MOR [8],4.27 ± 0.66^a %
same,Ki,[9],5.7 ± 0.23 nM
same,Ki,mouse MOR [10],11.2 nM
"CCL5: C—C motif chemokine ligand 5, control CCR5 agonist",EC50,"CCR5 [6]; agonist mode, HOS-CCR5 transfected with Gqi5, read-out: CCR5 Ca2+ mobilization agonism EC50",155 ± 6.58 nM
B1,Ki,[9],0.056 ± 0.006 nM
